Measured values from ChEMBL document CHEMBL1134801, “Dibasic inhibitors of human mast cell tryptase. Part 3: identification of a series of potent and selective inhibitors containing the benzamidine functionality” (Bioorg Med Chem Lett, 2001).

Key:
Tryptase = Tryptase (Homo sapiens, UniProt Q9BZJ3+Q15661+Q9NRR2); test: Inhibition of Tryptase in human mast cells; format: cell-based
Plasminogen = Plasminogen (Homo sapiens, UniProt P00747); test: Inhibition plasmin in human mast cells; format: cell-based
Chain of Plasminogen (P00747 97-580 limits assumed): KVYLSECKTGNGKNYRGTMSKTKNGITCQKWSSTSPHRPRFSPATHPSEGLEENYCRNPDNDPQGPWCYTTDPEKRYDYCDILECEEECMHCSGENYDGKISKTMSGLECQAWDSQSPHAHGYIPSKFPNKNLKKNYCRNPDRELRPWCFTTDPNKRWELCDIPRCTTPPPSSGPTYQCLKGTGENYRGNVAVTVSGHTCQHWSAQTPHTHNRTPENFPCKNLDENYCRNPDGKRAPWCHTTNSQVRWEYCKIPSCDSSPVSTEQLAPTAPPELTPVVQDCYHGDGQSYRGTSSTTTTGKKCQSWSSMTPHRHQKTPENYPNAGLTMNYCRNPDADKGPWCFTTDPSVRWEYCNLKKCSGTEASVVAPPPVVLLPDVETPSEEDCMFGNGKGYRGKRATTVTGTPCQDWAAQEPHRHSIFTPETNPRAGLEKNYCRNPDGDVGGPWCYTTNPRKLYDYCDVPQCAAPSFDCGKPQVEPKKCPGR
Chain of Plasminogen (P00747 581-810 limits assumed): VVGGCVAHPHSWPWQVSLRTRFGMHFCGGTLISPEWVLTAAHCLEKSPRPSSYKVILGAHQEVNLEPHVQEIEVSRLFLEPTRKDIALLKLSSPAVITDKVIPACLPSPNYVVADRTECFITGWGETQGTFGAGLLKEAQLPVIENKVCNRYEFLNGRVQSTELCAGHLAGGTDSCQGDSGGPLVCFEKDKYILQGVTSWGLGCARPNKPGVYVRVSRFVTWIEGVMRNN

Trypsin = Trypsin (Homo sapiens, UniProt P07477+P07478+P35030); test: Inhibition of trypsin in human mast cells; format: cell-based
Prothrombin = Prothrombin (Homo sapiens, UniProt P00734); test: Inhibition of thrombin in human mast cells; format: cell-based
[1] = Michaelis-Menten constant was determined for the compound after incubation with plasma amine oxidase; format: ADME, cell-free

Row | SMILES | Ki (Tryptase) [µM] | Ki (Plasminogen) [µM] | Ki (Trypsin) [µM] | Ki (Prothrombin) [µM] | Vmax / Km [1]
1 | N=C(N)c1ccc(S(=O)(=O)NCC2CCN(C(=O)O[C@H]3CCC[C@@H](OC(=O)N4CCN(C(=O)NCCC5CCNCC5)CC4)CCC3)CC2)cc1 | 0.028 | > 1000 | 16.8 | > 1000 | –
2 | N=C(N)c1ccc(C(=O)NCC2CCN(C(=O)O[C@H]3CCC[C@@H](OC(=O)N4CCC(CNC(=O)c5ccc(C(=N)N)cc5)CC4)CCC3)CC2)cc1 | 0.00085 | 62.2 | 4.67 | 20.8 | –
3 | N=C(N)N1CCC(CNC(=O)CNC(=O)OCc2ccc(COC(=O)NCC(=O)NCC3CCN(C(=N)N)CC3)cc2)CC1 | 0.155 | > 1000 | 466 | 386 | –
4 | NCC1CCN(C(=O)NCC2CCN(C(=O)OCc3ccc(COC(=O)N4CCC(CNC(=O)N5CCC(CN)CC5)CC4)cc3)CC2)CC1 | 0.024 | > 1000 | 515 | > 1000 | 1870
5 | N=C(N)c1ccc(CNC(=O)N2CCN(C(=O)O[C@H]3CCC[C@@H](OC(=O)N4CCN(C(=O)NCc5ccc(C(=N)N)cc5)CC4)CCC3)CC2)cc1 | 0.0087 | – | 25 | – | –
6 | N=C(N)c1ccc(C(=O)NCC2CCN(C(=O)O[C@H]3CCC[C@@H](OC(=O)N4CCN(C(=O)CCCC5CCNCC5)CC4)CCC3)CC2)cc1 | 0.0164 | 320 | 37.4 | 31.9 | –
7 | N=C(N)c1ccc(C(=O)NCC2CCN(C(=O)OCc3ccc(COC(=O)N4CCC(CNC(=O)c5ccc(C(=N)N)cc5)CC4)cc3)CC2)cc1 | – | 0.006 | 4.4 | 42.2 | –
8 | NCC1CCN(C(=O)NCCCCNC(=O)OCc2ccc(COC(=O)NCCCCNC(=O)N3CCC(CN)CC3)cc2)CC1 | 0.112 | > 1000 | > 1000 | > 1000 | –
9 | N=C(N)N1CCC(CCNC(=O)CNC(=O)OCc2ccc(COC(=O)NCC(=O)NCCC3CCN(C(=N)N)CC3)cc2)CC1 | 0.11 | > 1000 | > 1000 | 423 | –

Continued, values first:

Row | Ki (Tryptase) [µM] | Ki (Plasminogen) [µM] | Ki (Trypsin) [µM] | Ki (Prothrombin) [µM] | Vmax / Km [1] | SMILES
10 | 0.00112 | 310 | 52.1 | 102 | – | N=C(N)c1ccc(CNC(=O)N2CCN(C(=O)O[C@H]3CCC[C@@H](OC(=O)N4CCN(C(=O)CCCC5CCNCC5)CC4)CCC3)CC2)cc1
11 | 0.0067 | > 1000 | 63.1 | 94.4 | – | N=C(N)c1ccc(CC(=O)N2CCN(C(=O)O[C@H]3CCC[C@@H](OC(=O)N4CCN(C(=O)NCCC5CCNCC5)CC4)CCC3)CC2)cc1
12 | 0.016 | 279 | 38.8 | 41.2 | – | N=C(N)c1ccc(C(=O)NCC2CCN(C(=O)O[C@H]3CCC[C@@H](OC(=O)N4CCN(C(=O)NCCC5CCNCC5)CC4)CCC3)CC2)cc1
13 | 0.0406 | > 1000 | 554 | 561 | – | COC(=O)NC(=N)c1ccc(CNC(=O)N2CCN(C(=O)O[C@H]3CCC[C@@H](OC(=O)N4CCN(C(=O)NCCC5CCNCC5)CC4)CCC3)CC2)cc1
14 | 0.00091 | 287 | 47.2 | 111 | – | N=C(N)c1ccc(CNC(=O)N2CCN(C(=O)O[C@H]3CCC[C@@H](OC(=O)N4CCN(C(=O)NCCC5CCNCC5)CC4)CCC3)CC2)cc1
15 | 0.0089 | 293 | 21.1 | 52.9 | – | N=C(N)c1ccc(NC(=O)CC2CCN(C(=O)O[C@H]3CCC[C@@H](OC(=O)N4CCN(C(=O)NCCC5CCNCC5)CC4)CCC3)CC2)cc1
